The values below come from patent publication US10925858B2, “S-nitrosoglutathione (GSNO) and GSNO reductase inhibitors for use in therapy” (MUSC FOUNDATION FOR RESEARCH DEVELOPMENT, priority 2017, dated 2021).

Test [1] concerns IFN-γ, IL-4, IL-17, IL-10. Briefly: ELISA of CD4+ T cell subset specific cytokines in culture media of CNS derived lymphocytes of EAE mice. The format is in vivo, C57BL/6 mice. As to conditions: N6022 1 mg/kg/day. How it is done:
Female C57BL/6 mice of 8-12 weeks of age, purchased from Jackson Laboratory, were provided with food and water ad libitum and were kept in pathogen free animal care facility of Medical University of South Carolina (MUSC) throughout the study. All procedures were conducted in accordance with accepted standards of humane care as approved by the Institutional Animal Care and Use Committee (Approved number: AR #1644). EAE was induced as described previously (Nath et al., 2009). Briefly, mice were immunized subcutaneously in the flank regions with MOG35-55 peptide (MOG; 200 μg; Peptide International) emulsified (1:1) in 100 ul complete Freund's adjuvant (CFA) on day 0 and day 7. Additionally, 300 ng of Pertussis toxin (Sigma-Aldrich, St. Louis, Mo.) was given on day 0 and day 2 by i.p. injection. Pertussis toxin used as per the standardized protocol reported by us and other investigators for the induction of EAE (Nath et al., 2009). Similarly, healthy control group received subcutaneous injection of PBS and CFA emulsion on day 0 and day 7. Clinical signs of EAE were scored by examiners blinded to experimental treatments using the following scale: 0=no clinical signs of disease; 1=piloerection and sluggish; 2=limp tail (ataxia); 2.5=ataxia with partial hind limb paralysis; 3=full paralysis of hind limb; 3.5=full paralysis of hind limb with paralysis of one fore limb; 4=full paralysis of two limbs; 4.5=moribund stage; 5=death. […] The drug treatments were continued till the termination of the study (day 41 post immunization). EAE animals without drug treatment received PBS. Likewise, healthy controls received vehicle.
Fluorescence flow cytometry analysis for each subset of CD4+ T cells (TH1, TH2, TH17, CD4+CD25+ FOXP3+ Treg, and CD4+CD25+ FOXP3− Treg) were performed based on our previous report with modification (Nath et al., 2004). Briefly, control mice, EAE mice. EAE mice treated with GSNO. […] Following the preparation of single cell suspension, red blood cells were lysed with Pharma lyse buffer (BD Pharmingen™) and the remaining spleen cells were washed with RPMI 1640. The isolated CD4+ T cells were then resuspended with complete RPMI-media in 12-well plates (5×10^6 cells' 2 ml per well) containing MOG peptide (25 μg/ml) for 48 hrs. […] The cell pellets were washed with cell staining solution (ebioscience, Waltham, Mass. USA) and stained with fluorescence labeled antibody specific to IFN-γ for TH1. […] The cells were counted and analyzed using Beackman Coulter instrument (Beckman Coulter, Inc., Brea, Calif., USA).
ELISA assay was performed for analysis of CD4+ T cell subset specific cytokines released from cultured cells or spinal cord tissues. […] The equal amounts of proteins were analyzed for ELISA for IFN-γ. […]
For orientation: In an ELISA, binding on a coated surface is turned into a signal by an enzyme label.

Test [2] addresses GSNOR (Homo sapiens, UniProt P11766). As to conditions: description of the compound; cited from earlier work.

GSNOR, sequence (P11766 whole entry): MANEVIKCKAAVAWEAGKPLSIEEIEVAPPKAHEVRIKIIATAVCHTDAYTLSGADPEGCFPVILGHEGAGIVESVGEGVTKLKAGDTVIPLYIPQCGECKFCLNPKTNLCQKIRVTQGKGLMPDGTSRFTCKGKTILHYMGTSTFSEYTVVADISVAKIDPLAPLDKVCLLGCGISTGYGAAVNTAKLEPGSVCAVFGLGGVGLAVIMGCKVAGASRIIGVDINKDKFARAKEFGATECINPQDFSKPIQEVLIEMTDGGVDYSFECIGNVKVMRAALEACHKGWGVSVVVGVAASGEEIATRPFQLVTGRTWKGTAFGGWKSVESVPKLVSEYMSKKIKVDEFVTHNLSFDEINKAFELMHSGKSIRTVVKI

Turning to `Cc1cc(C(N)=O)ccc1-n1c(CCC(=O)O)ccc1-c1ccc(-n2ccnc2)cc1` [N6022, reference compound], in test [1], the “IFN-γ in culture media of CNS derived lymphocytes” value was “decreased”, the “IL-4 release of CNS derived lymphocytes” value was “increased” and the “IL-17 in culture media of CNS derived lymphocytes” value is listed as “decreased”. Besides, the “IL-10 expression of CNS derived lymphocytes” value in test [1] (vs control levels) is listed as “increased”. In addition, the “inhibition of GSNOR” value in test [2] is “very potent, specific, and reversible inhibitor”.
